Experimental data published in patent US11058677B2, “LFA-1 inhibitor formulations” (Novartis AG, priority 2012, dated 2021).

Experiments:
[1] = Stability of 5.0% solution (percentage of total degradates on storage); format: physicochemical; conditions: for individual degradate versus ICH qualification threshold: about 2 months
Procedure: Three separate 5.0% aqueous solutions of the compound of Formula 1 were prepared and allowed to stand at temperatures of about 5° C., 25° C., and 40° C. respectively for a period of about 15 months. The percentage of total degradates was measured for each solution after about every 4 weeks. The results of this experiment are graphically represented in FIG. 1.

[2] = Stability of three different formulations (total degradates at 40° C.); format: physicochemical
Procedure: Three separate solutions of the compound of Formula 1 of same concentration were prepared. The first solution (pH=6.0) was stored at 40° C. without any further additives for about four months. The second solution (pH=6.0) was further treated with a metabisulfite salt and allowed to stand at 40° C. for about four months. The pH of the third solution was buffered to pH 7.5 and allowed to stand at 40° C. for about 4 months without any further additives. The percentage of total degradates was measured for each solution after about every 4 weeks. The results of this experiment are graphically represented in FIG. 2.

[3] = Effect of antioxidants on stability of 3% w/v solutions; format: physicochemical; conditions: pH 6.5 with 0.3% w/v thiosulfate salt (40, 50, 60° C.) vs pH 7.5 without antioxidant at 40° C., about nine weeks
Procedure: Four separate solutions containing 3% w/v of the compound of Formula 1 were prepared. The pH of the first solution was buffered to 6.5, 0.3% w/v thiosulfate salt was added and the solution was stored at 50° C. for about nine weeks. The pH of the second solution was adjusted to 6.5, 0.3% thiosulfate salt was added and the solution was stored at 40° C. for about nine weeks. The pH of the third solution was buffered to 6.5, 0.3% thiosulfate salt was added and the solution was allowed to stand at 60° C. for about nine […]. No antioxidant was added to the fourth solution which was buffered to a pH of 7.5 and allowed to stand at a temperature of 40° C. for about 9 weeks. The percentage of total degradates was measured for each solution after about every 2-4 weeks. The results of this experiment are graphically represented in FIG. 3.

[4] = Effect of concentration (and EDTA) on formulation stability; format: physicochemical; conditions: solutions with and without 0.1% EDTA
Procedure: Three different concentrations of the compound of Formula 1, 1.0%, 3.0% and 5.0% were studied. The samples were monitored at a temperature of 40° C. The pH of the three solutions was maintained in the range of 7.0-7.5. The total % degradation of the three solutions was monitored with respect to time. The results of this experiment are graphically represented in FIG. 4.
Solutions both with and without 0.1% EDTA were monitored.

[5] = Individual degradates A and B by HPLC analysis on storage; format: physicochemical; conditions: 5.0% w/v solutions, 40° C. vs 60° C., about nine weeks
Procedure: Two solutions containing 5.0% w/v of the compound of Formula 1 were prepared. The first solution was stored at 40° C. for about 9 weeks and the second solution was stored at 60° C. for a period of about nine weeks. The percentage of each of the two major degradates of Formula 1 (degradate A and degradate B) was measured by HPLC analysis for each solution after about every 2-4 weeks. The results of this experiment are graphically represented in FIG. 5.

[6] = Degradation profile of 1.0% and 5.0% w/v solutions (degradation mechanism); format: physicochemical
Description: The results of these experiments are graphically represented in FIG. 7.

[7] = Effect of sparging with nitrogen on stability; format: physicochemical; conditions: about 40° C., about four months
Procedure: Four separate solutions of the compound of Formula 1 were prepared. The pH of the first solution was buffered to 6.0. The pH of the second solution was also buffered to 6.0 and the solution was additionally sparged with nitrogen. The pH of the third solution was buffered to 7.0. The pH of the fourth solution was also buffered to 7.0 and the solution was further sparged with nitrogen. All the four solutions were stored at a temperature of about 40° C. for a period of about four months. The percentage of total degradates was measured for each solution after about every four weeks. The results of this experiment are graphically represented in FIG. 8.

[8] = Effect of pH on stability of nitrogen sparged solutions (four months); format: physicochemical; conditions: pH 6.0, 7.0, 7.5, about 40° C.
Procedure: Three solutions of the compound of Formula 1 were prepared. The pH of the first solution was buffered to 6.0, the pH of the second solution was also buffered to 7.0 and pH of the third solution was buffered to 7.5. All the three solutions were sparged with nitrogen were stored at a temperature of about 40° C. for a period of about four months. The percentage of total degradates was measured for each solution after about every four weeks. The results of this experiment are graphically represented in FIG. 9.

[9] = Effect of pH on stability of formulation with antioxidant (metabisulfite); format: physicochemical; conditions: metabisulfite salt, pH 6.0 and 7.0, about 40° C., about four months
Procedure: Two solutions of the compound of Formula 1 were prepared. The pH of the first solution was buffered to 6.0 and the pH of the second solution was also buffered to 7.0. A metabisulfite salt was added to both the solutions and were stored at a temperature of about 40° C. for a period of about four months. The percentage of total degradates was measured for each solution after about every four weeks. The results of this experiment are graphically represented in FIG. 10.

[10] = Effect of various antioxidants on stability at pH 6.5; format: physicochemical; conditions: pH about 6.5, about 40° C., about one month, sodium thiosulfate (0.3% w/v) alone vs bisulfite, acetylcysteine, thioglycerol, Vitamin E TPGS, ascorbic acid
Procedure: Seven different solutions of Formula 1, buffered at a pH of about 6.5, were prepared. Sodium bisulfite (0.2% w/v) and sodium thiosulfate (0.3% w/v) were added to the first solution, sodium bisulfite (0.2% w/v) was added to the second solution, sodium thiosulfate (0.3% w/v) was added to the third solution, acetylcysteine (0.2% w/v) was added to the fourth solution, thioglycerol (0.2% w/v) was added to the fifth solution, Vitamin E TPGS ([…]) was added to the sixth solution, and ascorbic acid (0.3% w/v) was added to the seventh solution. All solutions were stored at a temperature of about 40° C. for a period of about one month after which the percentage of total degradates was measured for each solution. The results of this experiment are graphically represented in FIG. 11.

[11] = Effect of pH on stability, no antioxidant (one month); format: physicochemical; conditions: pH 6.0, 7.0, 7.5, 8.0, 8.5, no antioxidant, about 40° C.
Procedure: Five different solutions of the compound of Formula 1 were prepared. The first solution was buffered to a pH of 6.0, the second solution was buffered to pH 7.0, the third solution was buffered to pH 7.5, the fourth solution was buffered to pH 8.0, and the fifth solution was buffered a pH of 8.5. No antioxidant was added and all solutions were stored at a temperature of about 40° C. for a period of about one month after which the percentage of total degradates was measured for each solution. The results of this experiment are graphically represented in FIG. 12.

[12] = molecular target: LFA-1 interactions with ICAM-1 (Homo sapiens, UniProt P05107+P20701); assay: Inhibition of LFA-1 interactions with ICAM-1
Systemic clearance = conditions: in vivo

Sequence of LFA-1 interactions with ICAM-1 (P20701 26-1170): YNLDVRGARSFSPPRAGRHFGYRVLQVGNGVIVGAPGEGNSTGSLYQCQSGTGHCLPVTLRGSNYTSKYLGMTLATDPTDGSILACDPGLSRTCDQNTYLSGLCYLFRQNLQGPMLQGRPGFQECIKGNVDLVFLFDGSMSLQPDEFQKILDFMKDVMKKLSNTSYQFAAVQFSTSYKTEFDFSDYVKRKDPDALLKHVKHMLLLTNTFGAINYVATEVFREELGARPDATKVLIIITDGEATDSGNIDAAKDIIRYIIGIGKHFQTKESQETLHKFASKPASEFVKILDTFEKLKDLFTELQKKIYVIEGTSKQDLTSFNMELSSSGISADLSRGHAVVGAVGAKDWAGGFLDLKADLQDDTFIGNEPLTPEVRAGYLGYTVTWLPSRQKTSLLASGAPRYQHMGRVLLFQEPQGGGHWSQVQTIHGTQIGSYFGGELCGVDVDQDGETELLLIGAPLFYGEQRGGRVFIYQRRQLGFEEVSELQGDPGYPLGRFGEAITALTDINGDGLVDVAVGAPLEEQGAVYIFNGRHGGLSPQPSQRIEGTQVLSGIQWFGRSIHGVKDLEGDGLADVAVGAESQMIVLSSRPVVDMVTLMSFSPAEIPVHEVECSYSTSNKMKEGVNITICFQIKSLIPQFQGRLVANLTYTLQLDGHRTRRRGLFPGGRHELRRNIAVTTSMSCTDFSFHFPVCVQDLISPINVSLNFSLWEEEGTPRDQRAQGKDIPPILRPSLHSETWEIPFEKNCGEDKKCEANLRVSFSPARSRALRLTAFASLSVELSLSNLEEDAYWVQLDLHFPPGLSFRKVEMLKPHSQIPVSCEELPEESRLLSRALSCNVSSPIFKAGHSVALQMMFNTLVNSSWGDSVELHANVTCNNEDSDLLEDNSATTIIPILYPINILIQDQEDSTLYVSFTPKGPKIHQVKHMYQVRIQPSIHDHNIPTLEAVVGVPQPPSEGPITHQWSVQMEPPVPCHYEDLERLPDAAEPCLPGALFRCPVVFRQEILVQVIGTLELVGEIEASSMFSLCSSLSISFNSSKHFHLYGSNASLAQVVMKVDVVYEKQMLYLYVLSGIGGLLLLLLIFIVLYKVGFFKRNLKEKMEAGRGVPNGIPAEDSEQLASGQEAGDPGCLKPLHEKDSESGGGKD
Sequence of LFA-1 interactions with ICAM-1 (P05107 23-769): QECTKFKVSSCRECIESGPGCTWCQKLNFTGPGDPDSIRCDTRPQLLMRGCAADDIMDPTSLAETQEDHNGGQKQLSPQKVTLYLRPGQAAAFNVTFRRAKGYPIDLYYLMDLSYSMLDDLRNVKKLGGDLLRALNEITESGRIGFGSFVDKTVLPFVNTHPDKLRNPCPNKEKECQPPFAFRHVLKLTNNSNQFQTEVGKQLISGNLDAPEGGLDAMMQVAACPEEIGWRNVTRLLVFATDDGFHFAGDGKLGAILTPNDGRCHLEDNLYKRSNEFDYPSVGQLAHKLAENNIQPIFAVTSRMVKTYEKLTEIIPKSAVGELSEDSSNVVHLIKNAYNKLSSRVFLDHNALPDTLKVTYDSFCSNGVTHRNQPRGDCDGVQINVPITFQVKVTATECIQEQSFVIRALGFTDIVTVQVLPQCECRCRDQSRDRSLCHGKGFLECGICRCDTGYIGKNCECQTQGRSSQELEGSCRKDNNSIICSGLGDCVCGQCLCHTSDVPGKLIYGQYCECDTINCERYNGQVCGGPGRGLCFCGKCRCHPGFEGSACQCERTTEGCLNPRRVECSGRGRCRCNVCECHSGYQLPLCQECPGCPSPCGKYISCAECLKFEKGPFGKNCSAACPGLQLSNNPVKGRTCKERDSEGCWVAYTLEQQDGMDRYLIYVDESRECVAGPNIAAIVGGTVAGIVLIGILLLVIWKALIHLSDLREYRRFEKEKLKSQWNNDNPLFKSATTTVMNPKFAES

total degradation product ([1]; 5.0% aqueous solution stored at 5° C., after about 6 months): about 5%
total degradation product ([1]; 5.0% aqueous solution stored at 25° C., in about 2 months): 5%
total degradation product ([1]; 5.0% aqueous solution stored at 40° C., in about 2 months): 5%
stability (total degradates), effect of added antioxidant ([2]; pH 6.0 with metabisulfite salt vs pH 6.0 without additives, about four months): increases the stability
stability (total degradates), effect of increasing pH ([2]; pH 7.5 without antioxidant vs pH 6.0 without additives, about 4 months): increases the stability
stability (total degradates), effect of added antioxidant [3]: increased the stability
stability, effect of presence or absence of EDTA [4]: did significantly change the stability
% formation of degradates A and B, effect of storage temperature [5]: did not significantly affect
stability (total degradates), effect of nitrogen sparging ([7]; pH 6.0 and pH 7.0, sparged vs not sparged): better stability
stability (total degradates), pH 7.0 vs pH 6.0 ([7]; with and without nitrogen sparging): improved stability
stability (total degradates), effect of pH [8]: higher pH exhibited improved stability
stability (total degradates), comparison of antioxidants [10]: best overall stability
stability (total degradates), effect of pH [11]: higher pH exhibited better stability
inhibition of LFA-1 interactions with ICAM-1 [12]: effective inhibitor
systemic clearance rate (Systemic clearance): rapid systemic clearance rate
Structure (SMILES): CS(=O)(=O)c1cccc(C[C@H](NC(=O)c2c(Cl)cc3c(c2Cl)CCN(C(=O)c2ccc4ccoc4c2)C3)C(=O)O)c1 [compound of Formula 1]
individual degradant versus ICH qualification threshold ([1]; 5.0% aqueous solution stored at 5° C., about 6 months): no individual degradant above the ICH qualification threshold
individual degradate versus ICH qualification threshold ([1]; 5.0% aqueous solution stored at 25° C.): no individual degradate above the ICH qualification threshold
individual degradate versus ICH qualification threshold ([1]; 5.0% aqueous solution stored at 40° C.): no individual degradate above the ICH qualification threshold
rate of degradation, 5.0% w/v vs 1.0% w/v solution ([6]; total percentage degradation about every four weeks for six months): greater than the rate of degradation of the 1.0 w/v solution
final level of degradation, 5.0% w/v vs 1.0% w/v solution ([6]; when a limiting reactant such as oxygen is reduced, six months): appear to reach the same level of degradation
degradation and pH sensitivity of stability, effect of antioxidant [9]: significantly reduces both the degradation of Formula 1 and the sensitivity of the stability of Formula 1 to pH
